Patent US9365583B2, “Substituted pyrazoles and uses thereof” (Genentech, Inc., priority 2013, dated 2016)

What follows are molecules tested against T1, N-terminally GST-tagged DLK (catalytic domain amino acid 1-520) (Homo sapiens, UniProt Q12852) (assay: DLK TR-FRET inhibition assay). Details: 5 nM GST-DLK, 40 nM HIS-MKK4 K131M substrate, 30 μM ATP, 60 minutes at ambient temperature.
T1 construct: N-terminally GST-tagged DLK (catalytic domain amino acid 1-520); purchased Carna Bioscience
T1 sequence (Q12852 1-520): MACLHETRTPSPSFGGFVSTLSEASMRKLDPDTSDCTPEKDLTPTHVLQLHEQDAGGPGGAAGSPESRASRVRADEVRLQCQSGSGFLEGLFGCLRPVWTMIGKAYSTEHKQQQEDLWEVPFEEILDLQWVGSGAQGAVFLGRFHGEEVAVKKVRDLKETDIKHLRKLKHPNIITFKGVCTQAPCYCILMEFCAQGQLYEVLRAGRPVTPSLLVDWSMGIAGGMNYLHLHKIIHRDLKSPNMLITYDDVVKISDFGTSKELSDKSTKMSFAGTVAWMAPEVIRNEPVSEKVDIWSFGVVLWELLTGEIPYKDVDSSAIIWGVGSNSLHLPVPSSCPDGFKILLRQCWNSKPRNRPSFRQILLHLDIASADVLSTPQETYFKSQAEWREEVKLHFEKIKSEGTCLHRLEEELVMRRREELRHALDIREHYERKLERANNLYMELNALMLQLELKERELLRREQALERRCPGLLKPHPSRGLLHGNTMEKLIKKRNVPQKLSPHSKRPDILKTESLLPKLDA
Format: biochemical
Outline: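 Phosphorylated MKK4 was quantified by TR-FRET (Eu-labelled anti-phospho-MKK4, D2 anti-HIS; 3 h, 665 and 615 nm emission) after EDTA quench. Reactions held 5 nM GST-tagged DLK catalytic domain (1-520), 40 nM HIS-MKK4 K131M substrate, 30 μM ATP and compound (3-fold series from 20 uM), 60 min, room temperature, pH 7.5.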

SMILES | Ki [nM]
CC(C)n1nc(-c2cnc(N)c(OC(F)(F)F)c2)cc1[C@H]1[C@@H]2C[C@H](N3CCOCC3)C[C@@H]21 [compound 69, 5-(1-isopropyl-5-((1R,3r,5S,6r)-3-morpholinobicyclo[3.1.0]hexan-6-yl)-1H-pyrazol-3-yl)-3-(trifluoromethoxy)pyridin-2-amine] | 2.97
CC(C)n1nc(-c2cnc(N)c(OC(F)(F)F)c2)cc1[C@H]1[C@@H]2C[C@@H](N3CC(F)C3)C[C@@H]21 [compound 28, 5-(5-((1R,3s,5S,6r)-3-(3-fluoro-azetidin-1-yl)bicyclo[3.1.0]hexan-6-yl)-1-isopropyl-1H-pyrazol-3-yl)-3-(trifluoromethoxy) pyridin-2-amine] | 2.54
Nc1ncc(-c2cc([C@H]3[C@@H]4C[C@@H](N5CCOCC5)C[C@@H]43)n(CC(F)F)n2)cc1C(F)(F)F [compound 293, 5-(1-(2,2-difluoroethyl)-5-((1R,3s,5S,6r)-3-morpholinobicyclo [3.1.0]hexan-6-yl)-1H-pyrazol-3-yl)-3-(trifluoromethyl)pyridin-2-amine] | 3
COC1CCN([C@H]2C[C@@H]3[C@H](C2)[C@H]3c2cc(-c3cnc(N)c(C(F)(F)F)c3)nn2C(C)C)CC1 [compound 251, 5-(1-isopropyl-5-((1R,3r,5S,6r)-3-(4-methoxypiperidin-1-yl)bicyclo[3.1.0]hexan-6-yl)-1H-pyrazol-3-yl)-3-(trifluoromethyl) pyridin-2-amine] | 2.7

These reach a lower Ki. Values come first.

Ki [nM] | SMILES
1.5 | CO[C@H]1CCN([C@@H]2C[C@@H]3[C@H](C2)[C@H]3c2cc(-c3cnc(N)c(OC(F)(F)F)c3)nn2C(C)C)C1 [compound 214, 5-(1-isopropyl-5-((1R,3s,5S,6S)-3-((S)-3-methoxypyrrolidm-1-yl)bicyclo[3.1.0]hexan-6-yl)-1H-pyrazol-3-yl)-3-(trifluoromethoxy) pyridin-2-amine]
2 | COC1CCN([C@@H]2C[C@@H]3[C@H](C2)[C@H]3c2cc(-c3cnc(N)c(OC(F)F)c3)nn2C(C)C)CC1 [compound 250, 3-(difluoromethoxy)-5-(1-isopropyl-5-((1R,3s,5S,6r)-3-(4-methoxy-piperidin-1-yl)bicyclo[3.1.0]hexan-6-yl)-1H-pyrazol-3-yl) pyridin-2-amine]
